The values below come from patent publication US8288421B2, “Phenylaminopyridines” (Basilea Pharmaceutica AG, priority 2004, dated 2012).

Bounds are passed on as bounds.

Data set [1] deals with HeLa. Nature of the data set: Hoechst 33342 nuclear staining. It counts as cell-based, human. The settings on record: 48 h read-out. The method, then:
(§1) This assay is performed in 96 well tissue culture plates. Appropriate number of cells (adherent cells: 3-5*10^3, suspension cells: 8-10*10^3) are being seeded out in 80 μl complete medium. Adherent cells are incubated for 24 h for proper spreading out before addition of test compounds while suspension cells are immediately treated with test compounds after seeding out. The test compounds are added in 20 μl complete medium containing max 5% DMSO. The final compound concentrations in the assays are in the range of 0.001 μM-10 μM. […] The assay plates are then further incubated for 30 minutes and subsequently analyzed with a standard inverted fluorescence microscope.
(§2) The readout allows the determination of the fraction of apoptotic nuclei as well as other morphological criteria specific for apoptosis as a function of the treatment. The scores A, B, C and D are explained at the end of the Table.

For data set [2], the system named is Jurkat. Nature of the data set: Hoechst 33342 nuclear staining. It counts as cell-based, human. The conditions noted are these: 48 h read-out. The method, then:
as §1, §2

The test system of data set [3] is PBL. The data set is described as follows: Hoechst 33342 nuclear staining. The data set is classed as cell-based, human. The settings on record: 48 h read-out. The method, then:
as §1, §2

In data set [4] the test system is Jily. Nature of the data set: Hoechst 33342 nuclear staining. The data set is classed as cell-based. The conditions noted are these: 48 h read-out. The method, then: as §1, §2
The subject of data set [5] is MRC5. Nature of the data set: Hoechst 33342 nuclear staining. It counts as cell-based. The conditions noted are these: MRC5, 48 h read-out. Here is the method: as §1, §2
The subject of data set [6] is HT1080. The data set is described as follows: MTS proliferation assay. It counts as cell-based, human. The settings on record: HT1080, 72 h read-out. Here is the method:
(§3) The assay is performed in 96 well tissue culture plates. The cells (range: 1.5*10^3-10^4) are seeded out in 80 μl complete medium 24 h prior to compound treatment. The test compounds are added in 20 μl complete medium containing max 5% DMSO. The final compound concentrations in the assays are in the range of 0.001 μM-10 μM. The assay plates are incubated for 72 h at culture conditions. The MTS reagent is prepared according to the manufacturer's protocol (Promega G1111). 20 μl MTS reagent are added to each well, the assay plates are quickly spun and incubated for another 3 h at culture conditions. Subsequently, the plates are shortly shaked and absorption measured with a microplate-reader at 492 nm. The scores A, B, C and D are explained at the end of the Table.

Data set [7] has as its system HeLa. The data set is described as follows: MTS proliferation assay. It counts as cell-based, human. The conditions noted are these: 72 h read-out. The method, then: as §3
(Tetrazolium dyes change colour on reduction, which living cells bring about.)

Data set [8] relates to Jurkat. The data set is described as follows: MTS proliferation assay. The data set is classed as cell-based, human. The conditions noted are these: 72 h read-out. Here is the method:
as §3

The subject of data set [9] is Jily. The data set is described as follows: MTS proliferation assay. The conditions noted are these: 72 h read-out. The data set is classed as cell-based. The method, then:
as §3

The subject of data set [10] is MRC5. The data set is described as follows: MTS proliferation assay. The settings on record: MRC5, 72 h read-out. The data set is classed as cell-based. Here is the method: as §3
In data set [11] the test system is HeLa. The data set is described as follows: PI staining for cell cycle distribution. It counts as cell-based, human. The settings on record: 24 h read-out, read-out: PI staining for cell cycle distribution EC50 (G2M arrest), HeLa. Here is the method:
1-2*10^5 cells are seeded into 24 well tissue culture plates and incubated for 24 h prior to compound addition. Compounds are added for 24 h in a final concentration of 3 μM or 10 μM. Adherent cells are harvested by trypsinization. The cell suspensions are fixed by adding 2 parts ice cold ethanol 100% while vortexing. Then the samples are stored for >2 h at −20° C. Subsequently the cells are washed with PBS once and resuspended in 250 μl PBS containing 50 μg/ml PI (Calbiochem #537059), then the samples are incubated at 37° C. for 30 minutes and subsequently analyzed on a FACSCalibur™ monitoring linear PI fluorescence activity on FL2. The readout allows the detection of a possible direct or indirect influence of the tested compounds on the cell cycle. All active test compounds induce an arrest of the cell population in the G2M phase. This effect has been quantified by running the test at different concentrations. In Table 4 EC50 values are tabulated.

Data set [12] relates to HeLa. Nature of the data set: Mitochondrial membrane potential (JC-1). The data set is classed as cell-based, human. The settings on record: 48 h read-out. Here is the method: as §1, with “20 μal” for “20 μl”, “DMSO.” for “DMSO. The final compound concentrations in the assays are in the range of 0.001 μM-10 μM.”, “fluorescence microscope by using the FITC and TRITC filters.” for “fluorescence microscope.”
(§4) The scores A, B, C and D are explained at the end of the Table.

The test system of data set [13] is Jurkat. Nature of the data set: Mitochondrial membrane potential (JC-1). It counts as cell-based, human. The conditions noted are these: 48 h read-out. The method, then:
as §1, with “20 μal” for “20 μl”, “DMSO.” for “DMSO. The final compound concentrations in the assays are in the range of 0.001 μM-10 μM.”, “fluorescence microscope by using the FITC and TRITC filters.” for “fluorescence microscope.”
as §4

The subject of data set [14] is MCF7. Nature of the data set: Mitochondrial membrane potential (JC-1). It counts as cell-based, human. The settings on record: MCF7, 48 h read-out. Here is the method:
as §1, with “20 μal” for “20 μl”, “DMSO.” for “DMSO. The final compound concentrations in the assays are in the range of 0.001 μM-10 μM.”, “fluorescence microscope by using the FITC and TRITC filters.” for “fluorescence microscope.”
as §4

The test system of data set [15] is PBL. The data set is described as follows: Mitochondrial membrane potential (JC-1). It counts as cell-based, human. The settings on record: 48 h read-out. The method, then: as §1, with “20 μal” for “20 μl”, “DMSO.” for “DMSO. The final compound concentrations in the assays are in the range of 0.001 μM-10 μM.”, “fluorescence microscope by using the FITC and TRITC filters.” for “fluorescence microscope.”
as §4

In data set [16] the test system is DOHH2. Nature of the data set: Mitochondrial membrane potential (JC-1). It counts as cell-based. The conditions noted are these: DOHH2, 48 h read-out. The method, then: as §1, with “20 μal” for “20 μl”, “DMSO.” for “DMSO. The final compound concentrations in the assays are in the range of 0.001 μM-10 μM.”, “fluorescence microscope by using the FITC and TRITC filters.” for “fluorescence microscope.”
as §4

Data set [17] has as its system H460. Nature of the data set: Colony Forming Units. It counts as cell-based, human. The settings on record: H460, read-out after 6 days. Here is the method:
(§5) Appropriate numbers of cells (100-150 cells, dependent on the cell type) are being seeded out in 1 ml complete medium into 6-well plates and allowed to attach for 48 h. The compounds are added after 48 h in 500 μl solution. The concentrations are in the range of 0.001 μM-3 μM. Control plates receive the same volume of medium containing the appropriate amount of DMSO. The plates are incubated for 6 days at cell culture conditions and subsequently scored for growth of colonies (containing more than 30 cells) by using a microscope.

In data set [18] the test system is HeLa. The data set is described as follows: Colony Forming Units. The conditions noted are these: read-out after 6 days. The data set is classed as cell-based, human. The method, then: as §5

With `COc1ccc(Nc2cncc(-c3cccc(NS(C)(=O)=O)c3)c2)cc1` [Example 1, 3-(m-Mesylaminophenyl)-5-(p-methoxyphenylamino)pyridine], the melting point turned out to be 240 °C. The EC50 in data set [1] (Homo sapiens) lay in the range of 100 to 1000 nM. In addition, the EC50 in data set [2] (Homo sapiens) lay within 100 to 1000 nM. In data set [3] (Homo sapiens), the EC50 was greater than 1000 nM. The EC50 in [4] was in the range of 100 to 1000 nM. Besides, the EC50 in [5] (Homo sapiens) fell in the range of 100 to 1000 nM. Also, in data set [6] (Homo sapiens, HT-1080), the IC50 was 100 to 1000 nM. The IC50 in data set [7] (Homo sapiens) lay in the range of 100 to 1000 nM. In addition, the IC50 in [8] (Homo sapiens) was in the range of 10 to 100 nM. Besides, the IC50 in data set [9] was 10 to 100 nM. The IC50 in [10] (Homo sapiens) lay in the range of 100 to 1000 nM. The EC50 in data set [11] (Homo sapiens) was 100 to 1000 nM. Further, the EC50 in [12] (Homo sapiens) was in the range of 100 to 1000 nM. In addition, in data set [13] (Homo sapiens), the EC50 lay in the range of 100 to 1000 nM. In addition, the EC50 in data set [14] (Homo sapiens) was greater than 1000 nM. For the same molecule, in data set [15] (Homo sapiens), the EC50 was greater than 1000 nM. In addition, the EC50 in [16] (Homo sapiens, DOHH-2) was 100 to 1000 nM.
As for `COc1ccc(Nc2cncc(-c3cccc(NC(=O)c4ccccc4)c3)c2)cc1` [Example 2, 3-(m-Benzoylaminophenyl)-5-(p-methoxyphenylamino)pyridine], the melting point lay in the range of 135 to 140 °C. Besides, the EC50 in [1] (Homo sapiens) was 10 to 100 nM. Also, the EC50 in [2] (Homo sapiens) lay within 10 to 100 nM. In addition, the EC50 in [3] (Homo sapiens) was greater than 1000 nM. Moreover, the EC50 in data set [4] is 10 to 100 nM. Further, the EC50 in data set [5] (Homo sapiens) was greater than 1000 nM. In addition, the IC50 in [6] (Homo sapiens, HT-1080) was 10 to 100 nM. Besides, the IC50 in [7] (Homo sapiens) was in the range of 10 to 100 nM. In data set [8] (Homo sapiens), the IC50 is less than 10 nM. Besides, the IC50 in data set [9] was less than 10 nM. The IC50 in data set [10] (Homo sapiens) was in the range of 10 to 100 nM. For the same molecule, in data set [11] (Homo sapiens), the EC50 fell in the range of 100 to 1000 nM. Moreover, the EC50 in [12] (Homo sapiens) was in the range of 10 to 100 nM. Further, the EC50 in data set [13] (Homo sapiens) lay within 10 to 100 nM. Besides, in data set [14] (Homo sapiens), the EC50 is greater than 1000 nM. In data set [15] (Homo sapiens), the EC50 is greater than 1000 nM. For the same molecule, the EC50 in [16] (Homo sapiens, DOHH-2) lay within 10 to 100 nM. Also, the IC50 in data set [17] (Homo sapiens, NCI-H460, 144 h) was in the range of 100 to 1000 nM. Further, the IC50 in data set [18] (Homo sapiens, 144 h) lay within 100 to 1000 nM.
Take `CCS(=O)(=O)Nc1cccc(-c2cncc(Nc3ccc(OC)cc3)c2)c1` [Example 4]: the EC50 was 100 to 1000 nM in data set [1]; 10 to 100 nM in data set [2]; greater than 1000 nM in data set [3]; 10 to 100 nM in data set [4]; 10 to 100 nM in data set [5]; 100 to 1000 nM in data set [11]. Further, the EC50 in data set [12] is 100 to 1000 nM; in data set [13], less than 10 nM; in data set [14], greater than 1000 nM; in [15], greater than 1000 nM; in data set [16] it was less than 10 nM. The IC50 in [6] is 10 to 100 nM; in data set [7], 100 to 1000 nM; in data set [8], 10 to 100 nM; in [9], 10 to 100 nM; in [10], 100 to 1000 nM; in [17], 10 to 100 nM. In addition, the IC50 in data set [18] is 10 to 100 nM.

As usually defined, the EC50 is the concentration that produces a half-maximal response. A word on the IC50: it is the concentration that gives 50% inhibition. For orientation: melting point means the temperature of the solid-liquid transition.
